{
  "source": "patent US20220339236A1",
  "about": "“TREATMENT OF GENETIC DISEASES CHARACTERIZED BY UNSTABLE mRNAs” (Yissum Research Development Company of the Hebrew …, priority 2019, published 2022)",
  "key": {"dystrophin mRNA [1]": {"test_system": "dystrophin mRNA", "experiment": "Q-RT-PCR of DMD and muscle differentiation genes in MyoD-differentiated BMD patient-derived cells (duplication exon 2-7) (FIG. 18C-D)", "format": "cell-based, human", "details": "BMD duplication exon 2-7 cells differentiated into muscle cells, compound from day 5 for 6 days", "experimental": "(§1) FIGS. 18A-D. MDB stabilizes dystrophin protein levels in BMD patient-derived differentiated muscle cells. 18A-B. BMD patient-derived fibroblasts (duplication exon 2-7) and healthy skin fibroblasts (1092sk) were infected with Tet-on inducible myoD viruses for 24 hours. After 48 hours infected cells were seeded on matrigel coated dishes (2.5×10^5 cells/well) and were exposed to doxycycline ([…]) for 11 days. Doxycycline was changed every 2 days. After 5 days of differentiation cells were exposed to either MDB or 5HD alone or in combination with azithromycin (Azi) for another 6 days. Dystrophin protein levels were measured using western blot (18A) and relative quantification (18B). Arrows show dystrophin protein. 18C-D. Q-RT-PCR of muscle differentiation genes (CK2, myogenin, desmin) (18C) or DMD (18D) in cells described above.\n(§2) MyoD trans-differentiation: Primary skin fibroblasts were seeded in 10 cm plates and grown to 70% confluence. 24 hours later cells were infected for 24 h with MyoD inducible viral system (3×Flag-tagged full-length human MYOD1 cDNA-T2A-dsRed-Express2 cassette expressed from the Tetracycline Responsive Element (TRE) promoter. T2A is a peptide that facilitates ribosomal skipping as the mRNA transcript is being translated into protein). 48 hours after infection, cells were seeded in 6-well plates treated with Matrigel. MyoD inducible system transgene expression was induced by supplementing the medium with 3 μg/ml doxycycline. Fresh media with doxycycline was supplemented every 2 days. All differentiation studies were conducted in standard growth medium. Cells were harvested after 11 days of doxycycline treatment.\n(§3) Q-RT-PCR: RNA was isolated using. Tri-reagent (Sigma). cDNA synthesis was performed using the High Capacity cDNA Reverse Transcription Kit (Applied Biosystems). Q-RI-PCR was performed using Fast SYBR Green Master Mix (Applied Biosystems) and the StepOnePlus System (Applied Biosystems)."}, "dystrophin protein": {"test_system": "dystrophin protein", "experiment": "Western blot of dystrophin protein in MyoD-differentiated BMD patient-derived cells (duplication exon 2-7) (FIG. 18A-B)", "format": "cell-based, human", "experimental": "as §1, §2\nWestern blot analysis: Cells were lysed in Laemmli buffer (10% glycerol, 0.05M Tris pH 6.8, 5% β-mercaptoethanol, 3% SDS) and analyzed for total protein concentration. A total of 30 μg of total protein from each cell lysate was separated by SDS-PAGE and transferred onto a PVDF membrane. The membranes were blocked, probed with antibodies, and signal was detected using enhanced chemiluminescence detection."}, "[2]": {"test_system": "leukemia cells Kasumi 1, NKM-S34F, K562", "experiment": "Trypan blue viability assay in leukemia cells (FIG. 21-22)", "format": "cell-based", "details": "48 hours", "experimental": "FIG. 21. Sensitivity of leukemia cells to FTO inhibitors. Leukemia cells Kasumi 1 (AML), NKM-34F (AML harboring U2AF1 S34F mutation) and K562 ([…] wild-type U2AF1) were seeded in 6 well plates and treated with inhibitors (5-azacytidine, MDB, 5-HD) at the indicated concentrations. Cell viability was measured after 48 hours using trypan blue viability assay.\nFIG. 22. Sensitivity of leukemia cells to FTO inhibitors. AML cell lines (Kasumi 1 and Kasumi 3) and AML cell line harboring U2AF1 S34F mutation (NKM-S34F) were treated with inhibitors (5-azacytidine, MDB, 5-HD) at the indicated concentrations. Cell viability was measured after 48 hours using trypan blue viability assay.\nTrypan-blue exclusion assay: Cells (2×10^6) were seeded in 6-well plates and further treated with inhibitors at different concentrations (as described in figure). After 48 hours cells were trypsinized and collected, including cells in the medium and PBS wash. Cells were resuspended in HBSS and the percentage of dead cells was determined by 0.4% trypan blue staining using a BioRad cell counter."}, "dystrophin mRNA [3]": {"test_system": "dystrophin mRNA", "experiment": "Q-RT-PCR of dystrophin mRNA in DMD patient fibroblasts, nonsense mutation in exon 53 (FIG. 9A-B)", "format": "cell-based, human", "details": "positive control, 9 ug/ml; […]"}, "dystrophin mRNA [4]": {"test_system": "dystrophin mRNA", "experiment": "Q-RT-PCR of dystrophin mRNA in patient-derived skin fibroblasts before and after cycloheximide", "format": "cell-based, human", "details": "cycloheximide for 24 hours, primers exons 65-67", "experimental": "FIGS. 2A-B. Dystrophin mRNA is degraded by NMD in DMD patient-derived skin fibroblasts. 2A. Q-RT-PCR of dystrophin mRNA levels from DMD patient-derived skin fibroblasts using primers for exons 65-67 of the dystrophin gene. 2B. Q-RT-PCR of dystrophin mRNA levels in DMD patient-derived skin fibroblasts, before and after exposure to cycloheximide (CHX) for 24 hours, using primers for exons 65-67 of the dystrophin gene.\nas §3\nTreatment with compounds: 24 hours after cells were seeded the medium was replaced to medium containing the compounds for the indicated amount of time as described in the relevant figure legends. The cells were harvested for either RNA analysis using TRI Reagent (Sigma) or western blot analysis using Laemmli buffer."}},
  "data": [
    {"smiles": "CC[C@H]1OC(=O)[C@H](C)[C@@H](O[C@H]2C[C@@](C)(OC)[C@@H](O)[C@H](C)O2)[C@H](C)[C@@H](O[C@@H]2O[C@H](C)C[C@H](N(C)C)[C@H]2O)[C@](C)(O)C[C@@H](C)CN(C)[C@H](C)[C@@H](O)[C@]1(C)O", "note": "[azithromycin, Azithromycin]", "values": [
      {"measurement": "dystrophin mRNA", "setting": "dystrophin mRNA [1]", "result": "produced increases"},
      {"measurement": "dystrophin protein levels", "setting": "dystrophin protein; BMD duplication exon 2-7 cells differentiated into muscle cells, compound from day 5 for 6 days", "result": "only on mRNA levels"},
      {"measurement": "dystrophin expression on addition of a readthrough promoter", "setting": "dystrophin protein; added to FTO inhibitor", "result": "did not enhance dystrophin expression"}
    ]},
    {"smiles": "N.N.[Cl][Pt][Cl]", "note": "[cisplatin, Cisplatin]", "values": [
      {"measurement": "sensitivity of AML cell lines with S34F mutation in U2AF1 compared to two lines without the mutation", "setting": "[2]", "result": "A similar result was observed"}
    ]},
    {"smiles": "C[C@@H]1C[C@@H]([C@H](O)CC2CC(=O)NC(=O)C2)C(=O)[C@@H](C)C1", "note": "[cycloheximide]", "values": [
      {"measurement": "increase in dystrophin expression", "setting": "dystrophin mRNA [3]", "result": "greater than 10 fold"},
      {"measurement": "dystrophin mRNA levels", "setting": "dystrophin mRNA [4]", "result": "stabilization of dystrophin mRNA for many of the subjects"}
    ]}
  ]
}
